# Literature values as cited in patent US20190249218A1, “Method, Medium and Kit for Detecting Multiple Aminoglycoside Resistance Including 16S rRNA Methylase Mediated Resistance in Gram-Negative Bacteria” (priority 2016, published 2019).
# Key:
# [1] = tested on: 16S rRNA methylase producers; conditions: reference (13); cited from earlier work
# [2] = tested on: aminoglycoside modifying enzymes such as the nucleotidyl, acetyl and phosphoryl enzymes; conditions: reference (12); cited from earlier work
compound,measurement,setting,value
CN[C@@H]1[C@@H](O)[C@@H](O[C@@H]2[C@@H](O)[C@H](O[C@H]3OC(CNCCO)=CC[C@H]3N)[C@@H](N)C[C@H]2NC(=O)[C@@H](O)CCN)OC[C@]1(C)O [Plazomicin],activity against 16S rRNA methylase producers,[1],inactive
same,activity against aminoglycoside modifying enzymes,[2],active
